{"source": "paper PMC5358098", "about": "(ACS chemical neuroscience, 2016)", "key": {"CB1R [1]": {"biological_target": "T1, CB1R (Homo sapiens, UniProt P21554)", "T1 sequence (P21554 whole entry)": "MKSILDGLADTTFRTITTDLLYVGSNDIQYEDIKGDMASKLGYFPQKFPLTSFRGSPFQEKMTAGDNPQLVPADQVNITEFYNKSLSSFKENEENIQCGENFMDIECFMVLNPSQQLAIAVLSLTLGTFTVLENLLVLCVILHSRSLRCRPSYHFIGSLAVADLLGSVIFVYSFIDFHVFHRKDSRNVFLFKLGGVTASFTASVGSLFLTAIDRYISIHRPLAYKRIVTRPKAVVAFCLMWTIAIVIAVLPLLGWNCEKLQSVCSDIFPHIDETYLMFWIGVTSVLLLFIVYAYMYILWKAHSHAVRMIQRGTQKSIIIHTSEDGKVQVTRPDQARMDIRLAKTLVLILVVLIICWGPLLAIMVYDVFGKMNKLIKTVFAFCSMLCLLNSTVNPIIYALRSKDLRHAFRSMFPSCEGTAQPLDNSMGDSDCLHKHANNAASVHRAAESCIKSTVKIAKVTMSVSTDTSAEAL", "type": "cell-based", "settings": "HEK293A, 30 min"}, "CB1R [2]": {"biological_target": "T1, CB1R", "type": "cell-based", "settings": "Neuro2a, 30 min"}, "CB1R [3]": {"biological_target": "T1, CB1R", "assay": "cell-based", "type": "cell-based"}, "CB1R [4]": {"biological_target": "T2, CB1R (Mus musculus, UniProt P47746)", "T2 sequence (P47746 whole entry)": "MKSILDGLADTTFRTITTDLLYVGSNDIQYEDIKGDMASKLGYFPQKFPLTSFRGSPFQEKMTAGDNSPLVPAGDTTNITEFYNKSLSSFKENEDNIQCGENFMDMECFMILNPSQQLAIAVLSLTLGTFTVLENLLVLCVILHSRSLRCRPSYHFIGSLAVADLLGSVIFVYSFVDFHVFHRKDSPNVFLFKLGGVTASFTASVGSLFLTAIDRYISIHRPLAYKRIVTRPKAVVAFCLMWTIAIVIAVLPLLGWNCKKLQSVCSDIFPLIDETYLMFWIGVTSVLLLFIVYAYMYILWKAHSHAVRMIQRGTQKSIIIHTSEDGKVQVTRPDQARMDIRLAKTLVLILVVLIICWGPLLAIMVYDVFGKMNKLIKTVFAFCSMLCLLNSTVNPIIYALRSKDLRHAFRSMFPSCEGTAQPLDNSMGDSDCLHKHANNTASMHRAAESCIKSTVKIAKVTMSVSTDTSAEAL", "type": "cell-based", "settings": "Neuro2a, 10 min"}, "CB1R [5]": {"biological_target": "T1, CB1R", "type": "cell-based", "settings": "HEK293A, 10 min"}, "CB1R [6]": {"biological_target": "T2, CB1R", "type": "cell-based", "settings": "Neuro2a, 10 min", "remark": "listed apart in the source"}, "CB1R [7]": {"biological_target": "T1, CB1R", "assay": "cell-based", "type": "cell-based", "remark": "listed apart in the source"}, "CB1R [8]": {"biological_target": "T1, CB1R", "assay": "[3H]SR141716A equilibrium binding, hCB1R CHO cell membranes"}, "CB1R [9]": {"biological_target": "T1, CB1R", "assay": "cell-based"}, "CB1R [10]": {"system": "CB1R", "type": "cell-based", "settings": "mean of data for the pathway (Table 2), all cells and orthosteric ligands"}, "CB1R [11]": {"system": "CB1R", "type": "cell-based", "settings": "mean of data for the pathway (Table 3), all cells and orthosteric ligands"}, "hCB1R": {"system": "hCB1R", "assay": "Operational model bias analysis, HEK293A cells", "type": "cell-based, human", "settings": "HEK293A; for ΔΔlog R β-arrestin1/cAMP / ΔΔlog R β-arrestin1/pPLCβ3: reference 2-AG + GAT100"}, "CB1R [12]": {"biological_target": "T2, CB1R", "assay": "Operational model bias analysis, Neuro2a cells", "type": "cell-based", "settings": "for ΔΔlog R β-arrestin1/pPLCβ3: reference 2-AG + GAT100"}, "CB1R [13]": {"biological_target": "T2, CB1R", "settings": "STHdh^Q7/Q7; 1 μM + 500 nM CP55,940"}, "CB1R [14]": {"system": "CB1R"}, "CB1R [15]": {"system": "CB1R", "settings": "cited from earlier work"}, "CB1R [16]": {"biological_target": "T2, CB1R", "assay": "Operational model bias analysis, STHdh^Q7/Q7 cells", "settings": "STHdh^Q7/Q7"}, "[17]": {"settings": "500 nM 2-AG + 1 nM-10 μM allosteric modulator"}, "[18]": {"settings": "500 nM AEA + 1 nM-10 μM allosteric modulator"}, "[19]": {"settings": "500 nM CP55,940 + 1 nM-10 μM allosteric modulator"}}, "note": "Where two headings read alike, the source gives them in different places.", "data": [{"smiles": "CCc1c(C(=O)NCCc2ccc(N3CCCCC3)cc2)[nH]c2ccc(N=C=S)cc12", "note": "[GAT100, 3-ethyl-5-isothiocyanato-N-(4-(piperidin-1-yl)phenethyl)-1H-indole-2-carboxamide]", "values": [{"measurement": "Emax (BRETEff), 2-AG", "setting": "CB1R [1]; 1 nM-10 μM 2-AG + 1 μM NAM", "value": "0.29 ± 0.01"}, {"measurement": "Emax (BRETEff), AEA", "setting": "CB1R [1]; 1 nM-10 μM AEA + 1 μM NAM", "value": "0.37 ± 0.03"}, {"measurement": "Emax (BRETEff), CP55,940", "setting": "CB1R [1]; 1 nM-10 μM CP55,940 + 1 μM NAM", "value": "0.30 ± 0.04"}, {"measurement": "Emax (BRETEff), 2-AG", "setting": "CB1R [2]; 1 nM-10 μM 2-AG + 1 μM NAM", "value": "0.25 ± 0.03"}, {"measurement": "Emax (BRETEff), AEA", "setting": "CB1R [2]; 1 nM-10 μM AEA + 1 μM NAM", "value": "0.29 ± 0.02"}, {"measurement": "Emax (BRETEff), CP55,940", "setting": "CB1R [2]; 1 nM-10 μM CP55,940 + 1 μM NAM", "value": "0.34 ± 0.02"}, {"measurement": "Emax pPLCβ3/Total PLCβ3, 2-AG", "setting": "CB1R [3]; HEK293A, 1 nM-10 μM 2-AG + 1 μM NAM, 10 min", "value": "0.39 ± 0.02"}, {"measurement": "Emax pPLCβ3/Total PLCβ3, AEA", "setting": "CB1R [3]; HEK293A, 1 nM-10 μM AEA + 1 μM NAM, 10 min", "value": "0.36 ± 0.01"}, {"measurement": "Emax pPLCβ3/Total PLCβ3, CP55,940", "setting": "CB1R [3]; HEK293A, 1 nM-10 μM CP55,940 + 1 μM NAM, 10 min", "value": "0.39 ± 0.01"}, {"measurement": "IC50", "setting": "CB1R [3]; IC50, PLCβ3 phosphorylation, CP55,940", "value": 76.6, "unit": "nM"}, {"measurement": "Emax pPLCβ3/Total PLCβ3, 2-AG", "setting": "CB1R [4]; 1 nM-10 μM 2-AG + 1 μM NAM", "value": "0.34 ± 0.02"}, {"measurement": "Emax pPLCβ3/Total PLCβ3, AEA", "setting": "CB1R [4]; 1 nM-10 μM AEA + 1 μM NAM", "value": "0.37 ± 0.02"}, {"measurement": "Emax pPLCβ3/Total PLCβ3, CP55,940", "setting": "CB1R [4]; 1 nM-10 μM CP55,940 + 1 μM NAM", "value": "0.39 ± 0.02"}, {"measurement": "Emax pERK1/2/Total ERK1/2, 2-AG", "setting": "CB1R [5]; 1 nM-10 μM 2-AG + 1 μM NAM", "value": "0.33 ± 0.02"}, {"measurement": "Emax pERK1/2/Total ERK1/2, AEA", "setting": "CB1R [5]; 1 nM-10 μM AEA + 1 μM NAM", "value": "0.31 ± 0.02"}, {"measurement": "Emax pERK1/2/Total ERK1/2, CP55,940", "setting": "CB1R [5]; 1 nM-10 μM CP55,940 + 1 μM NAM", "value": "0.29 ± 0.02"}, {"measurement": "Emax pERK1/2/Total ERK1/2, 2-AG", "setting": "CB1R [6]; 1 nM-10 μM 2-AG + 1 μM NAM", "value": "0.31 ± 0.02"}, {"measurement": "Emax pERK1/2/Total ERK1/2, AEA", "setting": "CB1R [6]; 1 nM-10 μM AEA + 1 μM NAM", "value": "0.28 ± 0.02"}, {"measurement": "Emax pERK1/2/Total ERK1/2, CP55,940", "setting": "CB1R [6]; 1 nM-10 μM CP55,940 + 1 μM NAM", "value": "0.33 ± 0.02"}, {"measurement": "IC50", "setting": "CB1R [7]", "value": 741, "unit": "nM"}, {"measurement": "effect on cAMP levels in the absence of orthosteric agonists (inverse agonism)", "setting": "CB1R [7]; HEK-CRE, 10 μM forskolin + 1 nM to 10 μM compound alone, 4 h", "value": "did not affect cAMP accumulation"}, {"measurement": "IC50", "setting": "CB1R [7]; IC50, cAMP, CP55,940", "value": 834, "unit": "nM"}, {"measurement": "Emax, cAMP (pathway ligand bias summary)", "setting": "CB1R [7]; mean of data for the pathway (Table 4), cAMP Emax divided by 100", "value": "0.16 ± 0.04"}, {"measurement": "EC50", "setting": "CB1R [8]", "value": 410, "unit": "nM"}, {"measurement": "[3H]SR141716A binding at 10 μM", "setting": "CB1R [8]; 10 μM", "value": "did not completely abrogate"}, {"measurement": "fold greater potency than Org27569 as inhibitor of [3H]SR141716A binding", "setting": "CB1R [8]; EC50 ratio", "value": "~ 6 fold"}, {"measurement": "Emax", "setting": "CB1R [8]; read-out: Emax, [3H]SR141716A binding", "value": 22.6, "unit": "%"}, {"measurement": "IC50", "setting": "CB1R [9]", "value": 35.8, "unit": "nM"}, {"measurement": "Emax, β-arrestin1 (pathway ligand bias summary)", "setting": "CB1R [9]; mean of data for the pathway (Table 1), all cells and orthosteric ligands", "value": "0.30 ± 0.01"}, {"measurement": "Emax, PLCβ3 (pathway ligand bias summary)", "setting": "CB1R [10]", "value": "0.38 ± 0.01"}, {"measurement": "Emax, ERK (pathway ligand bias summary)", "setting": "CB1R [11]", "value": "0.32 ± 0.01"}, {"measurement": "BF β-arrestin1/cAMP", "setting": "hCB1R; [17]", "value": 1.0}, {"measurement": "BF β-arrestin1/pERK1/2", "setting": "hCB1R; [17]", "value": 1.0}, {"measurement": "BF β-arrestin1/pPLCβ3", "setting": "hCB1R; [17]", "value": 1.0}, {"measurement": "ΔΔlog R β-arrestin1/cAMP", "setting": "hCB1R; [17]", "value": "0.0 ± 0.1"}, {"measurement": "ΔΔlog R β-arrestin1/pPLCβ3", "setting": "hCB1R; [17]", "value": 0.0}, {"measurement": "BF β-arrestin1/cAMP", "setting": "hCB1R; [18]", "value": 0.8}, {"measurement": "BF β-arrestin1/pERK1/2", "setting": "hCB1R; [18]", "value": 0.3}, {"measurement": "BF β-arrestin1/pPLCβ3", "setting": "hCB1R; [18]", "value": 0.1}, {"measurement": "ΔΔlog R β-arrestin1/cAMP", "setting": "hCB1R; [18]", "value": "–0.1 ± 0.1"}, {"measurement": "ΔΔlog R β-arrestin1/pPLCβ3", "setting": "hCB1R; [18]", "value": "–1.2 ± 0.8"}, {"measurement": "BF β-arrestin1/cAMP", "setting": "hCB1R; [19]", "value": 1.3}, {"measurement": "BF β-arrestin1/pERK1/2", "setting": "hCB1R; [19]", "value": 0.6}, {"measurement": "BF β-arrestin1/pPLCβ3", "setting": "hCB1R; [19]", "value": 0.6}, {"measurement": "ΔΔlog R β-arrestin1/cAMP", "setting": "hCB1R; [19]", "value": "0.1 ± 0.1"}, {"measurement": "ΔΔlog R β-arrestin1/pPLCβ3", "setting": "hCB1R; [19]", "value": "–0.2 ± 0.1"}, {"measurement": "BF β-arrestin1/pERK1/2", "setting": "CB1R [12]; [17]", "value": 1.0}, {"measurement": "BF β-arrestin1/pPLCβ3", "setting": "CB1R [12]; [17]", "value": 1.0}, {"measurement": "ΔΔlog R β-arrestin1/pPLCβ3", "setting": "CB1R [12]; [17]", "value": "0.0 ± 0.1"}, {"measurement": "BF β-arrestin1/pERK1/2", "setting": "CB1R [12]; [18]", "value": 7.9}, {"measurement": "BF β-arrestin1/pPLCβ3", "setting": "CB1R [12]; [18]", "value": 15.8}, {"measurement": "ΔΔlog R β-arrestin1/pPLCβ3", "setting": "CB1R [12]; [18]", "value": "1.2 ± 0.1"}, {"measurement": "BF β-arrestin1/pERK1/2", "setting": "CB1R [12]; [19]", "value": 10.0}, {"measurement": "BF β-arrestin1/pPLCβ3", "setting": "CB1R [12]; [19]", "value": 3.2}, {"measurement": "ΔΔlog R β-arrestin1/pPLCβ3", "setting": "CB1R [12]; [19]", "value": "0.5 ± 0.2"}, {"measurement": "effect on CP55,940-induced CB1R internalization (fraction of CB1R at the plasma membrane)", "setting": "CB1R [13]", "value": "reversed this effect"}, {"measurement": "Emax, 2-AG (probe dependence summary)", "setting": "CB1R [14]; mean of data for 2-AG (Tables 1-4)", "value": "0.31 ± 0.02"}, {"measurement": "Emax, AEA (probe dependence summary)", "setting": "CB1R [14]; mean of data for AEA (Tables 1-4)", "value": "0.36 ± 0.03"}, {"measurement": "Emax, CP55,940 (probe dependence summary)", "setting": "CB1R [14]; mean of data for CP55,940 (Tables 1-4)", "value": "0.33 ± 0.02"}, {"measurement": "Emax, HEK293A (cell dependence summary)", "setting": "CB1R [14]; mean of data for HEK293A (Tables 1-3)", "value": "0.34 ± 0.01"}, {"measurement": "Emax, Neuro2a (cell dependence summary)", "setting": "CB1R [14]; mean of data for Neuro2a (Tables 1-3)", "value": "0.32 ± 0.01"}, {"measurement": "Emax, STHdh^Q7/Q7 (cell dependence summary)", "setting": "CB1R [14]; mean of data for STHdh^Q7/Q7 (Tables 1-3)", "value": "0.34 ± 0.02"}, {"measurement": "effect on CP55,940 equilibrium binding by CB1R", "setting": "CB1R [15]", "value": "increase CP55,940 equilibrium binding"}, {"measurement": "BF β-arrestin1/pERK1/2", "setting": "CB1R [16]; [17]", "value": 1.0}, {"measurement": "BF β-arrestin1/pPLCβ3", "setting": "CB1R [16]; [17]", "value": 1.0}, {"measurement": "BF β-arrestin1/pERK1/2", "setting": "CB1R [16]; [18]", "value": 1.3}, {"measurement": "BF β-arrestin1/pPLCβ3", "setting": "CB1R [16]; [18]", "value": 7.9}, {"measurement": "BF β-arrestin1/pERK1/2", "setting": "CB1R [16]; [19]", "value": 0.6}, {"measurement": "BF β-arrestin1/pPLCβ3", "setting": "CB1R [16]; [19]", "value": 5.0}]}]}
